According to patent publication US11661440B2 (priority 2015, dated 2023):
Ends that are not written are not given here.

Key:
NMDA receptor = format: cell-based, rat
[1] = biological target: NR1a/NR2B (GluN1-a/GluN2B) recombinant NMDA receptor (Rattus norvegicus, UniProt Q00960); format: cell-based
[2] = biological target: NR1a/NR2A (GluN1-a/GluN2A) recombinant NMDA receptor (Rattus norvegicus, UniProt Q00959); format: cell-based
Sequence of NR1a/NR2A (GluN1-a/GluN2A) recombinant NMDA receptor (Q00959 whole entry, looked up): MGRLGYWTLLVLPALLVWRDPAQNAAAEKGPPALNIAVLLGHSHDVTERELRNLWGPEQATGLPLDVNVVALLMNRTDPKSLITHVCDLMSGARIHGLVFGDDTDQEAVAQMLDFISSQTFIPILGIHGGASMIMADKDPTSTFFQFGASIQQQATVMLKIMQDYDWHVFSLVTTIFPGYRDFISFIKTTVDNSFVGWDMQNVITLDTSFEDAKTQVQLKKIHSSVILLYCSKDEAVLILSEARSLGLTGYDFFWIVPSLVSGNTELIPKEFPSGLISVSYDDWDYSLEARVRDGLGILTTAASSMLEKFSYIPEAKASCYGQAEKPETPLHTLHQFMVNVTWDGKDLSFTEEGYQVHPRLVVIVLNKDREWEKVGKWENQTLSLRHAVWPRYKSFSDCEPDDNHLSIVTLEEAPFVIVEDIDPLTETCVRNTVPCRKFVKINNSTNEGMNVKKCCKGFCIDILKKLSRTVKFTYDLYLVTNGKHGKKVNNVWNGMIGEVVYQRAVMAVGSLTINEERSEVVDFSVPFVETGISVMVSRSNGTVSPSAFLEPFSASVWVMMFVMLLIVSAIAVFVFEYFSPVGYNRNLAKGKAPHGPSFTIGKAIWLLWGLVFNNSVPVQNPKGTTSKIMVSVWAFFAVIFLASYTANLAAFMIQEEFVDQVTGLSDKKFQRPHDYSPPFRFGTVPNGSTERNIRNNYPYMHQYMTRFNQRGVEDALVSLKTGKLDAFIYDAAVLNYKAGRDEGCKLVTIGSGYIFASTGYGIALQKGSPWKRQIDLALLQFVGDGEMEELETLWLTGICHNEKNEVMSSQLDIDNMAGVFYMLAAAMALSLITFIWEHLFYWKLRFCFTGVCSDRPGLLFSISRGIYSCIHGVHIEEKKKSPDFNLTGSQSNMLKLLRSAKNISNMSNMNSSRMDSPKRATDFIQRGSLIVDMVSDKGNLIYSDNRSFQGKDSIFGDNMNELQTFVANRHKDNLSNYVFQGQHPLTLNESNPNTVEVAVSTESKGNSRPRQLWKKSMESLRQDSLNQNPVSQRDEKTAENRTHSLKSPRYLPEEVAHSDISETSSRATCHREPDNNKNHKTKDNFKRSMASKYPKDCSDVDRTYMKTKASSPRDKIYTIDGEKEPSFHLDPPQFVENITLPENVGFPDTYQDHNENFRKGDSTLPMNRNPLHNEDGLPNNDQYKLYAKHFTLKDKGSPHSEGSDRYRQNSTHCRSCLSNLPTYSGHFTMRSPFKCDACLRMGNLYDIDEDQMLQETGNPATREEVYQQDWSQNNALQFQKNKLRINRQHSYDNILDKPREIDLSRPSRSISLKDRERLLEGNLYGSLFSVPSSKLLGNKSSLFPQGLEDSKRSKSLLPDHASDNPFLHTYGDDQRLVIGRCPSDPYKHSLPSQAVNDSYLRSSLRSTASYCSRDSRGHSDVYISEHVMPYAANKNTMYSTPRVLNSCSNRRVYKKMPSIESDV

Sequence of NR1a/NR2B (GluN1-a/GluN2B) recombinant NMDA receptor (Q00960 whole entry, looked up): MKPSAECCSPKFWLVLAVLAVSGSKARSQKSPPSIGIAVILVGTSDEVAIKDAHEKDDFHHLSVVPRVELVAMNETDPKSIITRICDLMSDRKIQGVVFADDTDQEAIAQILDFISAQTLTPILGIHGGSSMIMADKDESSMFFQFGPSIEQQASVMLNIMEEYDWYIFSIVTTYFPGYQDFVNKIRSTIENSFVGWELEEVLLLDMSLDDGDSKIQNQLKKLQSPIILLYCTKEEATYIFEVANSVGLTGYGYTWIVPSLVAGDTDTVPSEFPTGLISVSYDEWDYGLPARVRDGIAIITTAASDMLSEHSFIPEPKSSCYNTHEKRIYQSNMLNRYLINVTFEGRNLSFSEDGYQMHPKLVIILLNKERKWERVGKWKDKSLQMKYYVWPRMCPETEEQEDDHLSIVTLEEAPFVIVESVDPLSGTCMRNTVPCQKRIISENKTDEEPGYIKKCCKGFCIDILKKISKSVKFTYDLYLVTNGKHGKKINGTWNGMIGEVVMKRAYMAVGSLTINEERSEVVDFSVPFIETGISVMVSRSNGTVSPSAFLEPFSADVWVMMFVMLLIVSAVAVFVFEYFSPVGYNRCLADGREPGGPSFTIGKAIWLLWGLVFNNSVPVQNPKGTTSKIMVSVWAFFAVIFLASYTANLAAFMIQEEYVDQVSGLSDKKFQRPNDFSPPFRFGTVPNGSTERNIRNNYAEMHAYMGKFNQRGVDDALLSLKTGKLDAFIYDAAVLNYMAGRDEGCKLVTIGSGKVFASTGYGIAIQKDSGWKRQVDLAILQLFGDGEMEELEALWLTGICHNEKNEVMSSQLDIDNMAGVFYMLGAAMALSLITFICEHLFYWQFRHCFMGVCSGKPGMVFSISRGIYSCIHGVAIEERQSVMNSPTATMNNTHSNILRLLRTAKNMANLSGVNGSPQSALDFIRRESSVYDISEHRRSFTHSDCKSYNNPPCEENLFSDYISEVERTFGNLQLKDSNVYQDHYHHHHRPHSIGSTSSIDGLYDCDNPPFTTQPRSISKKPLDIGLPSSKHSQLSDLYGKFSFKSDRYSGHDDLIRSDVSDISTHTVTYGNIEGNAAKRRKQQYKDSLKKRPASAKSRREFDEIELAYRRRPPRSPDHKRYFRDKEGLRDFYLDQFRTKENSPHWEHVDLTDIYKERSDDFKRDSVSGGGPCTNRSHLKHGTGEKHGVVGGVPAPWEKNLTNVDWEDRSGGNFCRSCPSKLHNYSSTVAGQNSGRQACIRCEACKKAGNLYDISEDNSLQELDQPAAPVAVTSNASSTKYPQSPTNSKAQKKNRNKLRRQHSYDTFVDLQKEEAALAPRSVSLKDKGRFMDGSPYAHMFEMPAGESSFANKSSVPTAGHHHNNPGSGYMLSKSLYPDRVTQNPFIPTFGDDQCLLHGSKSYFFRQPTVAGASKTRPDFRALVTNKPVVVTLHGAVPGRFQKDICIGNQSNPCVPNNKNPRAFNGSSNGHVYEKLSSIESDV

GEDDLQDNQDLIRDKSN [SEQ ID NO: 2] was tested, and the “inhibition in some registers” value (NMDA receptor) was about 40%, the IC50 (NMDA receptor; read-out: IC50 for inhibition of NMDA receptor-evoked current (dose-response curve)) was 202 µM and the “blocking of evoked current (in words)” value [1] was “Almost total blocking of the current”. The “selectivity between GluN2B and GluN2A subunits (in words)” value [1] was “selectivity for subunit GluN2B rather than GluN2A” and the “reduction of evoked current (in words)” value [2] was “slight reduction in current”.
